The source of these data is ChEMBL document CHEMBL5338769, “Discovery of Norisoboldine Analogue III11 as a Novel and Potent Aryl Hydrocarbon Receptor Agonist for the Treatment of Ulcerative Colitis” (J Med Chem, 2023).

The IC50 is the concentration at which inhibition is half-maximal. Broadly, the Cmax is the maximum level reached in the sampled fluid or tissue. The term AUC(0-inf) denotes total exposure, with the tail of the curve extrapolated. What is called half-life is how long it takes for the measured level to halve. For orientation: MRT means the average time that molecules of a dose stay in the body.

Molecules are shown by their SMILES. Activity calls are given as the source filed them. The calls are words filed in the database; no cut-off is given here.

Data set [1] relates to EL4. Description: Cytotoxicity against mouse EL4 cells assessed as inhibition of cell proliferation incubated for 72 hrs by MTT assay. Type of data set: functional, cell-based. The conditions noted are these: EL4, 72 h.
The target in data set [2] is T1, Aryl hydrocarbon receptor (Mus musculus, UniProt P30561).
T1 sequence (P30561 whole entry): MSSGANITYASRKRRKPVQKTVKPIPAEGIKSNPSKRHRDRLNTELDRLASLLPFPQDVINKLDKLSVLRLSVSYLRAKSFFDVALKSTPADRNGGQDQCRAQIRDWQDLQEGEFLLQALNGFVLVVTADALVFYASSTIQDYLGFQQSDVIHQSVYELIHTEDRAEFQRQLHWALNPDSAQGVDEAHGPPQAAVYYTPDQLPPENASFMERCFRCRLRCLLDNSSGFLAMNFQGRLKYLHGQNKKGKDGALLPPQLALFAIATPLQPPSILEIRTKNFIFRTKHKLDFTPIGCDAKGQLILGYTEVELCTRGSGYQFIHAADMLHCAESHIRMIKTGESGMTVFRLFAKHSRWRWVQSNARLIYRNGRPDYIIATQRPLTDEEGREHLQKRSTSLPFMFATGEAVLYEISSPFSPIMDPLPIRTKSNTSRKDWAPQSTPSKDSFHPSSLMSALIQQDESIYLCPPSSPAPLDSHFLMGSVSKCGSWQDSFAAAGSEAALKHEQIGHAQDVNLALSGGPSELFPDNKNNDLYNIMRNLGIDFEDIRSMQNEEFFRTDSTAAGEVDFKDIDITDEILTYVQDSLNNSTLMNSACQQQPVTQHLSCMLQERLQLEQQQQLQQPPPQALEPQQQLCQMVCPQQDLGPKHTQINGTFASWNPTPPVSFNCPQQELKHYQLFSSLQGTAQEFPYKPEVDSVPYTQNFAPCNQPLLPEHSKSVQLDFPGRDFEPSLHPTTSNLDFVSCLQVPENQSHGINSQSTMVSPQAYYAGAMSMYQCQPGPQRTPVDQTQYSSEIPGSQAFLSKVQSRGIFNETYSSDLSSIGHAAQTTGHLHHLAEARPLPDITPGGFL
Nature of the data set: Activation of AhR transcription in C57BL/6 mouse naive T cells assessed as increase in CYP1B1 mRNA expression at 1 to 3 uM by qRT-PCR analysis. The data set is classed as cell-based. The conditions noted are these: t cell, dose 1-3 µM. For orientation: Real-time PCR tracks product formation cycle by cycle.

The target of data set [3] is T1, Aryl hydrocarbon receptor. Description: Activation of AhR transcription in C57BL/6 mouse naive T cells assessed as increase in CYP1A1 mRNA expression by measuring fold change at 3 uM by qRT-PCR analysis relative to control. Type of data set: cell-based. The conditions noted are these: T-cell, read-out: FC.
Data set [4] can be described thus: Protein binding in rat plasma at 20.13 ug/ml of total concentration measured after 12 hrs by ultrafiltration based HPLC analysis. The data set is classed as ADME, cell-free. The following applies: at 20.13 µg/mL, read-out: PPB.
Data set [5] is described as follows: Protein binding in rat plasma at 10.74 ug/ml of total concentration measured after 12 hrs by ultrafiltration based HPLC analysis. The data set is classed as ADME, cell-free. The conditions noted are these: at 10.74 µg/mL, read-out: PPB (converted).
Data set [6] can be described thus: Protein binding in rat plasma at 21.67 ug/ml of total concentration measured after 12 hrs by ultrafiltration based HPLC analysis. The data set is classed as ADME, cell-free. The conditions noted are these: at 21.67 µg/mL, read-out: PPB (converted).
Data set [7] can be described thus: Protein binding in rat plasma at 48.02 ug/ml of total concentration measured after 12 hrs by ultrafiltration based HPLC analysis. The conditions noted are these: at 48.02 µg/mL, read-out: PPB (converted). The data set is classed as ADME, cell-free.
Data set [8] in a line: Induction of cell differentiation in C57BL/6 mouse naive regulatory T cells assessed as increase in cell frequency at 3 uM incubated for 72 hrs by flow cytometric analysis (reference value: 24.9%). The data set is classed as functional. A general note: In flow cytometry, cells or beads pass a laser one at a time.
Data set [9] is described as follows: Induction of cell differentiation in C57BL/6 mouse naive regulatory T cells assessed as increase in […] mRNA level by measuring fold change at 3 uM incubated for 72 hrs by qRT-PCR analysis. The data set is classed as functional.
Data set [10] in a line: Cmax in Sprague-Dawley rat at 3 mg/kg, iv measured at 120 min by LC-MS/MS analysis. Type of data set: ADME, organism-based. Set-up: time 120 min, dose 3 mg/kg, route iv. The following applies: in vivo.
Data set [11] is described as follows: AUC(0 to infinity) in Sprague-Dawley rat at 3 mg/kg, iv measured upto 1440 min by LC-MS/MS analysis. Set-up: dose 3 mg/kg, time < 1440 min, route iv. The conditions noted are these: in vivo. Type of data set: ADME, organism-based.
Data set [12] is described as follows: Half-life in Sprague-Dawley rat at 30 mg/kg, po measured upto 1440 min by LC-MS/MS analysis. The data set is classed as ADME, organism-based. The following applies: in vivo.
Data set [13] can be described thus: MRT in Sprague-Dawley rat at 30 mg/kg, po measured upto 1440 min by LC-MS/MS analysis. Type of data set: ADME, organism-based. The following applies: in vivo.
In data set [14] the test system is Mus musculus. Nature of the data set: Anti-colitis activity against DSS-induced ulcerative colitis C57BL/6 mouse model assessed as recovery of colon length at 20 mg/kg, po administered once a day for 10 days. The following applies: time 10.0 day. Type of data set: functional, organism-based.
Data set [15] relates to Mus musculus. Nature of the data set: Anti-colitis activity against DSS-induced ulcerative colitis C57BL/6 mouse model assessed as decrease in colon MPO activity at 10 to 20 mg/kg, po administered once a day for 10 days. Type of data set: functional, organism-based. The following applies: dose 10-20 mg/kg, time 10.0 day.
Data set [16] deals with Mus musculus. Nature of the data set: Anti-colitis activity against DSS-induced ulcerative colitis C57BL/6 mouse model assessed as amelioration of epithelial change score by measuring crypt abscesses in colon at 10 to 20 mg/kg, po administered once a day for 10 days by H&E staining based histopathological analysis. The data set is classed as functional, organism-based. The following applies: dose 10-20 mg/kg, time 10.0 day.

Data set [17] relates to Mus musculus. Description: Anti-colitis activity against DSS-induced ulcerative colitis C57BL/6 mouse model assessed as amelioration of epithelial change score by measuring loss of goblet cells in colon at 10 to 20 mg/kg, po administered once a day for 10 days by H&E staining based histopathological analysis. Type of data set: functional, organism-based. The following applies: dose 10-20 mg/kg, time 10.0 day.

In data set [18] the test system is Mus musculus. Description: Anti-colitis activity against DSS-induced ulcerative colitis C57BL/6 mouse model assessed as amelioration of inflammation severity in colon at 10 to 20 mg/kg, po administered once a day for 10 days by H&E staining based histopathological analysis. The data set is classed as functional, organism-based. The conditions noted are these: dose 10-20 mg/kg, time 10.0 day.

The nature of data set [19]: Induction of cell differentiation in C57BL/6 mouse naive regulatory T cells assessed as increase in cell frequency at 1 uM incubated for 72 hrs by flow cytometric analysis (reference value: 24.9%). Type of data set: functional.
The nature of data set [20]: Induction of cell differentiation in C57BL/6 mouse naive regulatory T cells assessed as increase in cell frequency at 10 uM incubated for 72 hrs by flow cytometric analysis (reference value: 24.9%). Type of data set: functional.
Data set [21] can be described thus: Induction of cell differentiation in C57BL/6 mouse naive regulatory T cells assessed as increase in cell frequency at 0.3 uM incubated for 72 hrs by flow cytometric analysis (reference value: 24.9%). The data set is classed as functional.
In data set [22] the test system is Mus musculus. Description: Anti-colitis activity against DSS-induced ulcerative colitis C57BL/6 mouse model assessed as increase in IL-10 mRNA level at 20 mg/kg, po administered once a day for 10 days by qRT-PCR analysis. Type of data set: functional, organism-based. The following applies: time 10.0 day.
For data set [23], the system named is Mus musculus. Description: Anti-colitis activity against DSS-induced ulcerative colitis C57BL/6 mouse model assessed as increase in IL-10 mRNA level by measuring fold change at 10 mg/kg, po administered once a day for 10 days by qRT-PCR analysis. Type of data set: functional. The following applies: time 10 day.
The test system of data set [24] is Mus musculus. Nature of the data set: Anti-colitis activity in DSS-induced ulcerative colitis C57BL/6 mouse model assessed as increase in CD4+CD25+Foxp3+ Treg cell ratio in mesenteric lymph nodes at 10 mg/kg, po administered once a day for 10 days by flow cytometric analysis (reference value: 4.5 %). Type of data set: functional. The conditions noted are these: time 10 day.

`COc1cc2c3c(c1)-c1ccc(O)cc1CC3NCC2` (centres undefined): the IC50 in data set [1] was 28 µM. Moreover, the Activity entry in data set [2] is on record as “Active”; in data set [8], 35.4%; in data set [19], 29.9%; in [20], 41.7%; in data set [21] it was 26.7%; in data set [24] it was 7.4%. Further, the fold induction at 3 µM in [3] was 4.6. Also, the fraction unbound at 12 h, 20.13 ug/ml in data set [4] amounted to 0.498. In [5], the fraction unbound at 12 h, 10.74 ug/ml is 0.134. Moreover, the fraction unbound at 12 h, 21.67 ug/ml in data set [6] is 0.149. Further, in data set [7], the fraction unbound at 12 h, 48.02 ug/ml was 0.139. The “fold change (FC)” value in data set [9] is 1.4; in data set [23], 1.26. In [10], this molecule gave a Cmax of 396 ng/mL. This molecule showed an area under the curve AUC(0-inf) in [11] of 974 ng·h/mL. In data set [12], this molecule showed a half-life of 2.69 h. This molecule had an MRT in data set [13] of 7.27 h. In addition, the outcome in [14], in data set [15], in data set [16], in [17], in [18] and in data set [22] was Active.
